Marks after values point to notes of the source that are not given here.
Experiments:
Assay type in all cases: in vivo
plasma fibrinogen = assay: Rat established adjuvant arthritis model: plasma fibrinogen levels
Excerpt: (§1) To assess the synergistic antiarthritic effect of Glucosamine hydrochloride and the DCV hyperimmune egg in the established rat adjuvant arthritis, a chronic animal model of inflammation.

[1] = tested on: established rat adjuvant arthritis; assay: Rat adjuvant arthritis model: histomorphologic observations, tibiotarsal joint; design: scale not given here; settings: for Ankylosis (score) / Erosion, Cartliage (score) / Hyperostosis (score) / Inflammation, periarticular (score) / Osteolysis (score) / Pannus, Cartliage (score): Tibiotarsal Joint (H&E); for Erosion, Cartilage (score): Tibiotarsal Joint (PAS)
Excerpt: as §1

[2] = tested on: established rat adjuvant arthritis; assay: Rat established adjuvant arthritis model: paw edema; settings: for % Chg (paw edema vs Control Adjuvant) / Day 14-Mean Paw Edema (ml ± SE) / Day 22-Mean Paw Edema (ml ± SE) / Day 30-Mean Paw Edema (ml ± SE): oral, rat
Excerpt: as §1

SMILES | % Δ from ctrl (plasma fibrinogen) (plasma fibrinogen; Day 23, oral) [%] | Mean Plasma Fibrinogen Levels (mg/dl ± SE) (plasma fibrinogen; Day 23, oral) [mg/dL] | % Δ from ctrl (plasma fibrinogen) (plasma fibrinogen; Day 30, oral) | Mean Plasma Fibrinogen Levels (mg/dl ± SE) (plasma fibrinogen; Day 30, oral) [mg/dL] | Ankylosis (score) ([1]; Day 22) | Erosion, Cartliage (score) ([1]; Day 22) | Hyperostosis (score) ([1]; Day 22) | Inflammation, periarticular (score) ([1]; Day 22) | Osteolysis (score) ([1]; Day 22) | Pannus, Cartliage (score) ([1]; Day 22) | Ankylosis (score) ([1]; Day 30) | Erosion, Cartliage (score) ([1]; Day 30) | Hyperostosis (score) ([1]; Day 30) | Inflammation, periarticular (score) ([1]; Day 30) | Osteolysis (score) ([1]; Day 30) | Pannus, Cartliage (score) ([1]; Day 30) | Erosion, Cartilage (score) ([1]; Day 22) | Erosion, Cartilage (score) ([1]; Day 30) | % Chg (paw edema vs Control Adjuvant) ([2]; Day 14) [%] | Day 14-Mean Paw Edema (ml ± SE) ([2]; Day 14) | further results
COc1ccc2c(c1)c(CC(=O)O)c(C)n2C(=O)c1ccc(Cl)cc1 [Indo, Indomethacin] | −28 | 617 ± 72 | −46* % | 366 ± 48 | 1.5/1.5 | 1.5 | 3.0 | 3.5/3.5 | 2.5 | 1.5 | 1.5/1.5 | 2.5 | 2.0 | 3.5/3.5 | 1.0 | 2.5 | 1.5 | 2.5 | −8 | 1.2 ± 0.4, n = 6 ml | percent inhibition of fibrinogen levels (plasma fibrinogen; day 30): 46%; % Chg (paw edema vs Control Adjuvant) ([2]; Day 22): −37%; Day 22-Mean Paw Edema (ml ± SE) ([2]; Day 22): 1.2 ± 0.1, n = 6 ml; % Chg (paw edema vs Control Adjuvant) ([2]; Day 30): −86* %; Day 30-Mean Paw Edema (ml ± SE) ([2]; Day 30): 0.3 ± 0.1, n = 5 ml
Cl.N[C@H]1C(O)O[C@H](CO)[C@@H](O)[C@@H]1O (some centres unmarked) [GLU-250, Glucosamine hydrochloride] | −2 | 803 ± 39 | −28% | 487 ± 112 | 3.5 | 2.0 | 3.0 | 3.5 | 1.5 | 2.0 | 4.0 | 4.0 | 3.5 | 4.0 | 3.5 | 4.0 | 2.0 | 4.0 | −15 | 1.1 ± 0.3, n = 7 ml | % Δ from ctrl (plasma fibrinogen) (plasma fibrinogen; Day 16, oral): +18%; Mean Plasma Fibrinogen Levels (mg/dl ± SE) (plasma fibrinogen; Day 16, oral): 735 ± 44 mg/dL; % Chg (paw edema vs Control Adjuvant) ([2]; Day 22): −16%; Day 22-Mean Paw Edema (ml ± SE) ([2]; Day 22): 1.6 ± 0.3, n = 7 ml; % Chg (paw edema vs Control Adjuvant) ([2]; Day 30): +48* %; Day 30-Mean Paw Edema (ml ± SE) ([2]; Day 30): 3.1 ± 0.2, n = 5 ml; effect on paw edema, in words ([2]; day 30, severe polyarthritis): ineffectiveness; effect on paw edema, in words ([2]; days 14 and 22): inhibitory effect
